Results as given in patent publication US12233161B1, “Lipids and lipid nanoparticle formulations” (LONGUIDE BIOPHARMA CORPORATION, priority 2024, dated 2025).
Several values for one entry are separate records, joined by “and”; a condition that tells them apart may be missing. Identical values can stand only once.

How the values were obtained:
[1] = Potential characterization of nucleic acid lipid nanoparticle preparations; assay type: physicochemical
Summary of the method: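 Nanoparticles (about 0.04 mg/mL mRNA) were diluted in ultrapure water for Malvern ZEN3700 measurement: 20 μL into 780 μL for potential alone, or 27.5 μL into 200 μL for DLS particle size followed by addition of 600 μL water for potential.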

[2] = test system: mice; test: In vivo delivery of FLuc-mRNA lipid nanoparticles in mice, in vivo imaging (IVIS)
Summary of the method: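 Mice (n=3) received about 75 μL FLuc-mRNA LNP per mouse intramuscularly (rectus femoris), intravenously (tail vein), intraperitoneally or subcutaneously (back). After injection, D-luciferin (200 μL, 15 mg/mL) was given i.p. 10-15 min before IVIS imaging.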

[3] = Particle size and PDI of nucleic acid lipid nanoparticle preparations by dynamic light scattering; assay type: physicochemical
Summary of the method: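 Nanoparticle suspension (about 0.04 mg/mL mRNA) diluted in ultrapure water, mixed by gentle pipetting; particle size measured by dynamic light scattering. Zeta potential measured on the recovered sample after further dilution in ultrapure water.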

[4] = test system: mice; test: In vivo delivery of lipid nanoparticles co-loaded with FLuc-mRNA and Cy5-siRNA in mice; settings: IV, 1.00:10.00:33.00:56.00, N/P 30
Experimental: Lipid nanoparticles loaded with nucleic acid drugs were prepared according to step 2, replacing FLuc-mRNA with a mixture of FLuc-mRNA (Hongene Biotech Corporation, Shanghai) and Cy5-siRNA. Each mouse was administered a dose of 3 μg FLuc-mRNA and 3 μg Cy5-siRNA. After a certain period of time, in vivo imaging (PerkinElmer, IVIS Lumina III) was performed. For the detection of FLuc-mRNA expression, 200 μL of a 15 mg/mL D-Luciferin working solution was injected intraperitoneally ten to fifteen minutes before imaging, followed by imaging analysis using the in vivo imaging system. 9. Investigation of the Delivery Efficacy of Lipid Nanoparticle Formulations for Compounds in Mice

[5] = DMG-PEG2000:DSPC:Chol:compound 1.00:10.00:33.00:56.00, N/P 42
[6] = DMG-PEG2000:DSPC:Chol:compound 1.00:10.00:33.00:56.00, N/P 48
[7] = LNP co-loaded with Fluc-mRNA and Cy5-siRNA, DMG-PEG2k:DSPC:Chol:L0263 1.00:10.00:33.00:56.00, N/P 30
[8] = mRNA LNP, 1.00:10.00:33.00:56.00, N/P 42
[9] = DMG-PEG2000:DSPC:Chol:Lipid 1.00:4.00:65.00:30.00, N/P 6, IV, liver
[10] = DMG-PEG2000:DSPC:Chol:Lipid 1.00:4.00:65.00:30.00, N/P 6, IV, lung
[11] = DMG-PEG2000:DSPC:Chol:Lipid 1.00:4.00:65.00:30.00, N/P 6, IV, spleen
[12] = DMG-PEG2000:DSPC:Chol:Lipid 5.00:10.00:29.00:56.00, N/P 42, IV, liver
[13] = DMG-PEG2000:DSPC:Chol:Lipid 5.00:10.00:29.00:56.00, N/P 42, IV, lung
[14] = DMG-PEG2000:DSPC:Chol:Lipid 5.00:10.00:29.00:56.00, N/P 42, IV, spleen
[15] = mRNA LNP, 1.00:10.00:33.00:56.00, N/P 42, IV, liver
[16] = mRNA LNP, 1.00:10.00:33.00:56.00, N/P 42, IV, lung
[17] = mRNA LNP, 1.00:10.00:33.00:56.00, N/P 42, IV, spleen
[18] = DMG-PEG2000:DSPC:Chol:Lipid 1.00:4.00:65.00:30.00, N/P 6, mRNA LNP
[19] = DMG-PEG2000:DSPC:Chol:Lipid 2.18:17.32:60.50:20.00, N/P 30, mRNA LNP
[20] = DMG-PEG2000:DSPC:Chol:Lipid 5.00:10.00:29.00:56.00, N/P 42, mRNA LNP

CCCCCCCCCCCCNC(=O)C(O)CN(CCCN(C)CCCN(CC(O)C(=O)NCCCCCCCCCCCC)CC(O)C(=O)NCCCCCCCCCCCC)CC(O)C(=O)NCCCCCCCCCCCC (centres unmarked) [Compound L0263]
Zeta potential (mV) [1, 5]: 11.54 mV
Zeta potential (mV) [1, 6]: 16.93 mV
Zeta potential (mV) [1, 7]: 12.77 mV
Zeta potential (mV) [1, 8]: 11.97 mV
IVIS ([2]; DMG-PEG2000:DSPC:Chol:Lipid 1.00:4.00:65.00:30.00, N/P 6, IV, body): 1.07 × 10^7
% of organ targeting [2, 9]: 10.71%
IVIS [2, 9]: 1.34 × 10^6
% of organ targeting [2, 10]: 12.46%
IVIS [2, 10]: 1.55 × 10^6
% of organ targeting [2, 11]: 76.83%
IVIS [2, 11]: 9.58 × 10^6
IVIS ([2]; DMG-PEG2000:DSPC:Chol:Lipid 2.18:17.32:60.50:20.00, N/P 30, IM, whole body scan): 6.05 × 10^6
IVIS ([2]; DMG-PEG2000:DSPC:Chol:Lipid 5.00:10.00:29.00:56.00, N/P 42, IV, body): 1.83 × 10^8
% of organ targeting [2, 12]: 2.01%
IVIS [2, 12]: 4.24 × 10^6
% of organ targeting [2, 13]: 90.12%
IVIS [2, 13]: 1.90 × 10^8
% of organ targeting [2, 14]: 7.87%
IVIS [2, 14]: 1.66 × 10^7
IVIS ([2]; IP, organ not given, DMG-PEG2000:DSPC:Chol:compound 1.00:10.00:33.00:56.00, N/P 42, Fluc-mRNA): 5.82E+09
IVIS ([2]; IV, body, DMG-PEG2000:DSPC:Chol:compound 1.00:10.00:33.00:56.00, N/P 48, Fluc-mRNA): 7.08E+08
% of organ targeting ([2]; IV, liver, DMG-PEG2000:DSPC:Chol:compound 1.00:10.00:33.00:56.00, N/P 48): 0.44%
IVIS ([2]; IV, liver, DMG-PEG2000:DSPC:Chol:compound 1.00:10.00:33.00:56.00, N/P 48, Fluc-mRNA): 1.71E+07
% of organ targeting ([2]; IV, lung, DMG-PEG2000:DSPC:Chol:compound 1.00:10.00:33.00:56.00, N/P 48): 98.92%
IVIS ([2]; IV, lung, DMG-PEG2000:DSPC:Chol:compound 1.00:10.00:33.00:56.00, N/P 48, Fluc-mRNA): 3.83E+09
% of organ targeting ([2]; IV, spleen, DMG-PEG2000:DSPC:Chol:compound 1.00:10.00:33.00:56.00, N/P 48): 0.63%
IVIS ([2]; IV, spleen, DMG-PEG2000:DSPC:Chol:compound 1.00:10.00:33.00:56.00, N/P 48, Fluc-mRNA): 2.46E+07
in vivo delivery efficiency as compared to the benchmark compound SM102 ([2]; certain formulations, Table 2): superior in vivo delivery efficiency
tissue-targeting specificity (lung vs spleen depending on molar percentage of compound) ([2]; certain formulations, Table 2): strong tissue-targeting specificity
% of organ targeting [2, 15]: 0.46%
IVIS [2, 15]: 8.07E+06
% of organ targeting [2, 16]: 99.18%
IVIS [2, 16]: 1.74E+09
% of organ targeting [2, 17]: 0.36%
IVIS [2, 17]: 6.30E+06
IVIS ([2]; mRNA LNP, DMG-PEG2000:DSPC:Chol:lipid 1.00:10.00:33.00:56.00, N/P 42, IV, body): 2.93E+08
PDI [3, 18]: 0.12 ± 0.01
Particle size [3, 18]: 110.83 ± 1.05 nm
PDI [3, 19]: 0.11 ± 0.02
Particle size [3, 19]: 126.23 ± 1.69 nm
PDI [3, 20]: 0.12 ± 0.01
Particle size [3, 20]: 126.40 ± 2.08 nm
PDI [3, 5]: 0.13 and 0.15
Particle size (nm) [3, 5]: 86.62 nm and 139.47 nm and 118.13 nm
PDI [3, 6]: 0.13
Particle size (nm) [3, 6]: 118.33 nm
PDI [3, 7]: 0.14
Particle size (nm) [3, 7]: 95.5 nm
PDI [3, 8]: 0.14
Particle size (nm) [3, 8]: 97.48 nm
% of organ targeting (Fluc) ([4]; 10 min, Heart): 0.2%
Fluc IVIS/g Organ ([4]; 10 min, Heart): 9.76E+05
% of organ targeting (Fluc) ([4]; 10 min, Kidney): 0.1%
Fluc IVIS/g Organ ([4]; 10 min, Kidney): 3.33E+05
% of organ targeting (Fluc) ([4]; 10 min, Liver): 0.1%
Fluc IVIS/g Organ ([4]; 10 min, Liver): 5.97E+05
% of organ targeting (Fluc) ([4]; 10 min, Lung): 97.9%
Fluc IVIS/g Organ ([4]; 10 min, Lung): 4.98E+08
% of organ targeting (Fluc) ([4]; 10 min, Spleen): 1.7%
Fluc IVIS/g Organ ([4]; 10 min, Spleen): 8.58E+06
% of organ targeting (Fluc) ([4]; 20 min, Heart): 0.2%
Fluc IVIS/g Organ ([4]; 20 min, Heart): 3.16E+06
% of organ targeting (Fluc) ([4]; 20 min, Kidney): 0.0%
Fluc IVIS/g Organ ([4]; 20 min, Kidney): 4.37E+05
% of organ targeting (Fluc) ([4]; 20 min, Liver): 0.1%
Fluc IVIS/g Organ ([4]; 20 min, Liver): 1.27E+06
% of organ targeting (Fluc) ([4]; 20 min, Lung): 99.2%
Fluc IVIS/g Organ ([4]; 20 min, Lung): 1.98E+09
% of organ targeting (Fluc) ([4]; 20 min, Spleen): 0.6%
Fluc IVIS/g Organ ([4]; 20 min, Spleen): 1.13E+07
% of organ targeting (Fluc) ([4]; 1 h, Heart): 0.2%
Fluc IVIS/g Organ ([4]; 1 h, Heart): 6.32E+06
% of organ targeting (Fluc) ([4]; 1 h, Kidney): 0.0%
Fluc IVIS/g Organ ([4]; 1 h, Kidney): 1.67E+06
% of organ targeting (Fluc) ([4]; 1 h, Liver): 0.1%
Fluc IVIS/g Organ ([4]; 1 h, Liver): 3.51E+06
% of organ targeting (Fluc) ([4]; 1 h, Lung): 98.1%
Fluc IVIS/g Organ ([4]; 1 h, Lung): 3.70E+09
% of organ targeting (Fluc) ([4]; 1 h, Spleen): 1.6%
Fluc IVIS/g Organ ([4]; 1 h, Spleen): 5.86E+07
